From PMC11984392, “EphA2-targeted alpha-particle theranostics for enhancing PDAC treatment” (Theranostics, 2025) come the findings set out here.

Series [1] in a line: In vitro stability of radiotracers in saline / formulation buffer. It is filed as physicochemical. Conditions: 37 °C, radio-RP-HPLC. The protocol: The stability of the radiotracers was assessed in saline and human serum at 37 °C to mimic physiological conditions. Approximately 1.5 mCi of the radiotracer, prepared in 100-150 µL of saline, was added to 0.5 mL of either saline or human serum in separate microcentrifuge tubes. The mixtures were gently vortexed and then incubated at 37 °C in an incubator. At predetermined time-points (1, 2, and 3 h), 100 µL aliquots were collected from the incubation mixtures for analysis. For serum samples, proteins were removed by adding 100 µL of saline and 50 µL of ethanol, followed by ultrafiltration using 10 kDa centrifugal filters made of regenerative cellulose membranes. The filtration process was performed by centrifugation at 14,000 rpm for 10 min and repeated once more to ensure complete protein removal. The filtrate was collected for analysis. The radiochemical integrity of the radiotracer in both saline and serum was evaluated using radio-RP-HPLC.

Series [2] in a line: PET-MR imaging of Panc1 orthotopic tumor model. In kind it is in vivo, mice. Particulars: both sexes, NSG, mouse, iv, total radioactivity, PET/MR 60 min p.i., ROI (n = 4). The protocol:
Animal studies were performed under Johns Hopkins University Animal Care and Use Committee (ACUC)-approved protocol (Principal investigator: Sridhar Nimmagadda, Ph.D. and Protocol number M021M175). Male and Female NSG mice (5-6 weeks old) were purchased from JHU immunocompromised core and used to establish xenografts by administering cells subcutaneously (top right flank, unless otherwise noted) to form various tumor models within 3-4 weeks. Following cell numbers were used: Panc1, AsPC1, BxPC3 (1 M), Hs766T and SU8686 (2 M), CFPAC and Panc1005 (5 M). Imaging or biodistribution studies (n = 3-5) were conducted on mice with tumor volumes of 100-200 mm^3. The Panc1 orthotopic tumor model was established by surgically implanting a 3-5 mm^3 section of Panc1 tumor xenograft directly onto the pancreas. The implanted tumors were allowed to grow and were ready for imaging after 10 days of implantation.
Mice having orthotopic panc1 tumors were injected intravenously with [^68Ga]AJ201 and PET images were acquired at 60 min after radiotracer injection for 10 min in 1 bed positions (full body) and whole-body MRI using a Simultaneous 7T Bruker PET-MR. The PET data were acquired, reconstructed, and corrected for radioactive decay using ParaVision 360 V2 by Bruker. The %ID per cc values were obtained after drawing ROI (regain of interest) in tumor and muscle using PMOD software. […]

Like-named read-outs stand apart in the source and are kept apart here. *1 amine or outer side, *2 acyl side, *3 side chain or, on linkers, in order; H or OH if unused. Where a SMILES comes first, the peptide text is derived from it. Bridges are numbered along the chain shown (N, C = ends). [ ]: non-standard residue; d: D form. The star is where a group is joined. TATA = O=C(CC[*:1])N1CN(C(=O)CC[*:2])CN(C(=O)CC[*:3])C1; NOTA = O=C(O)CN1CCN(CC(=O)O)CCN(CC(=O)*)CC1; Hyp = O=C(O)[C@@H]1C[C@@H](O)CN1; hArg = N=C(N)NCCCC[C@H](N)C(=O)O; PEG2 = NCCOCCOCCC(=O)O; Sar = CNCC(=O)O

For the molecule `CC(C)C[C@@H]1NC(=O)[C@@H]2CSCCC(=O)N3CN(CN(C3)C(=O)CCSC[C@H](NC(=O)[C@H](CC(=O)O)NC(=O)[C@H](CCCCNC(=N)N)NC(=O)[C@H](C)NC(=O)CNC(=O)CN(C)C(=O)CN(C)C(=O)CN(C)C(=O)[C@H](CCCNC(=N)N)NC(=O)CNC(=O)CCOCCOCCNC(=O)CN3CCN(CC(=O)O)CCN(CC(=O)O)CC3)C(=O)N3C[C@H](O)C[C@H]3C(=O)N[C@@H](CC(C)C)C(=O)N[C@@H](C(C)C)C(=O)N[C@@H](CC(N)=O)C(=O)N3CCC[C@H]3C(=O)N[C@@H](CC(C)C)C(=O)N2)C(=O)CCSC[C@@H](C(N)=O)NC(=O)[C@H](CCCCNC(=N)N)NC(=O)[C@H](Cc2c[nH]c3ccccc23)NC(=O)[C@@H](CC(=O)O)NC(=O)[C@@H]2CCCN2C(=O)[C@H](Cc2c[nH]cn2)NC1=O` [[^68Ga]AJ201, metal not drawn] ({NOTA-PEG2}-GR[Sar][Sar][Sar]GA[hArg]DC[Hyp]LVNPLCLHP[dD]W[hArg]C-NH2; linker 10-17-24 via TATA), the “Time of stability in formulation buffer” value in series [1] (10% EtOH/saline) was “at least 3 h”. In addition, the “Stability in saline (radio-HPLC finding)” value in series [1] (saline, up to 3 h, ~1.5 mCi in 0.5 mL) is reported as “stable without noticeable degradation or impurity formation”. The tissue to tissue ratio at 1 h was found to be 14.8 ± 4.46 in series [2] (tumor and muscle, read-out: Tumor-to-muscle ratio); 10.3 ± 2.24 in series [2] (tumor and pancreas, read-out: Tumor-to-pancreas ratio).
